Source: patent US7776538B2, “Method for diagnosing methamphetamine dependence” (National University Corporation Nagoya University, priority 2005, dated 2010)

Experiments:
Gene 1 mRNA = Gene 1 mRNA expression in brain tissue by RT-PCR; format: in vivo, mice; conditions: for Gene 1 expression amount in the nucleus accumbens induced by methamphetamine: methamphetamine 2 mg/kg s.c. six days, R(+)-SCH23390 0.1 mg/kg i.p. or raclopride 2 mg/kg i.p. 30 minutes before
Experimental: Antisense nucleotide of Gene 1 was continuously infused into the mouse cerebral ventricle by using a mini osmotic pump and methamphetamine was administered to the animals every day.
A mouse was fed with 6% ethanol or water (control) for 12 days, and then was subjected to decapitation. The amount of Gene 1 mRNA in the nucleus accumbens was measured by a RT-PCR method.

mice = assay: Locomotor activity test; format: in vivo; conditions: methamphetamine administered to mice every day (FIG. 1: 2 mg/kg, s.c., six days), hydrochloride
Experimental: In the test, ICR male mice (Japan SLC, Hamamatsu) that were 8-week old when the test was started. The mice were bred under conditions of light and dark cycle of 12 hours (light up: A.M 8:00), room temperature 23±1° C., and humidity 50±5%. The mice were freely fed with food (CE2: CLEA Japan, Tokyo) and water. Note here that this research program was approved by Animal Research Committee, Nagoya University School of Medicine and carried out in accordance with Guideline of Animal Research of Nagoya University School of Medicine and Principles of Laboratory Animal Care (National Institutes of Health Publication 85-23, 1985).
In the test, an acrylic cage (28 cm in length, 17 cm in width and 13 cm in height) that is the same kind as the home case was used. On the floor, a small amount of breeding chip was placed. […]
On days 1 to 3, mice were placed in a measurement cage for two hours so that the mice became accustomed to the measurement environment. […] Right after the administration, the total locomotor activity for two hours was measured.
Each of the antisense nucleotide of Gene 1 and 2 was infused into the mice cerebral ventricle continuously by using a mini osmotic pump and methamphetamine was administered to the animals every day. The locomotor activity on the first, third and fifth days was measured. […] The locomotor activity was measured for two hours. […]

Genes 1 to 3 mRNA = assay: Expression of Genes 1 to 3 mRNA by RT-PCR / real time RT-PCR after methamphetamine; format: in vivo, mice
Text: Furthermore, when the increase of the expression amount was examined by a real time RT-PCR method, the expression amount was increased in the methamphetamine-administered cortex of frontal lobe, nucleus accumbens and striatum, respectively (FIGS. 10 to 12).

[1] = tested on: mouse (C57black6) nucleus accumbens; assay: cDNA subtraction of nucleus accumbens mRNA after methamphetamine; format: in vivo; conditions: methamphetamine 10 consecutive days, five genes incl. Gene 1, Gene 2, Gene 3 (Piccolo)
Experimental: By using RNeasy mini kit (QIAGEN), mRNA was prepared by the following procedure. Mouse brain was taken out and the tissue was divided so as to be 30 mg or less. The brain tissue was dissolved in a solution containing a protein denaturizing agent and centrifuged with a spin column. Ethanol precipitation was repeated. Finally, mRNA was purified with silica gel.
The cDNA subtraction was carried out by using CLONTECH PCR-Select™ cDNA Subtraction Kit (CLONTECH) according to the attached instruction manual.
Methamphetamine-administered mice show hyperactivity, and when methamphetamine is administered to mice every day, the degree of hyperactivity is increased. This can be thought to be a mental disorder accompanying drug dependence (FIG. 1). Then, mRNA was taken out from the mouse (C57black6) nucleus accumbens to which methamphetamine had been administered for 10 consecutive days. Based on this, cDNA subtraction (CLONTECH) was carried out. In mice to which methamphetamine had been administered, a gene in which mRNA expression amount increased by 20 times or more than that of a control group was searched. As a result, five genes satisfy the requirement (FIG. 2). In the genes, three genes except for CREB3 and Odz4 were used for the later research. For convenience of description, each gene is referred to as Gene 1, Gene 2 and Gene 3 (Piccolo).

[2] = biological target: T1, human dopamine transporter (Homo sapiens, UniProt Q01959); assay: Fluorescence immunostaining of intracellular movement of dopamine transporter in PC12 cell; conditions: before and after methamphetamine was acted
T1 construct: expressed in transfected cells; host or cells: PC12 cells
T1 sequence (Q01959 whole entry): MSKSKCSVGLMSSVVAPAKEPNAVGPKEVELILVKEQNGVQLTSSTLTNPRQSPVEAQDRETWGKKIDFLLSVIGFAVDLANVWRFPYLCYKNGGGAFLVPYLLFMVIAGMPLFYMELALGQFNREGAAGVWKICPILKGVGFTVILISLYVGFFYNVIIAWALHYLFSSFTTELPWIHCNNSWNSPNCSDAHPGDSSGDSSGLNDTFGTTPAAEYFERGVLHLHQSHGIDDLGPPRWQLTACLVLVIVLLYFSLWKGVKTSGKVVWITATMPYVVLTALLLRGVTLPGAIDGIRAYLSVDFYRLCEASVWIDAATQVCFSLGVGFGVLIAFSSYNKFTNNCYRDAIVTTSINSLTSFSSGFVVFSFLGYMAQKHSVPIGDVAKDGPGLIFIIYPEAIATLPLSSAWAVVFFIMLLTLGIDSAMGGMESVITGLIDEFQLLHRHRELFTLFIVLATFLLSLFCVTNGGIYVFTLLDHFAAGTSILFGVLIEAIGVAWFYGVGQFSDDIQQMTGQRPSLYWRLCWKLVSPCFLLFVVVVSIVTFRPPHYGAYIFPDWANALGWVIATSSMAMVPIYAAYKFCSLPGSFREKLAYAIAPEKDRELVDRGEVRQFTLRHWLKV
Experimental: In the PC12 cell, the human dopamine transporter was forcedly expressed and fluorescence immunostaining of a human dopamine transporter was carried out before and after methamphetamine was acted.

Compound: c1ccc(C2(N3CCCCC3)CCCCC2)cc1 [phencyclidine]
- Gene 1 mRNA amount in the cortex of frontal lobe (Gene 1 mRNA; phencyclidine 10 mg/kg s.c. 14 days): no significant correlation

Compound: CCN1CCC[C@H]1CNC(=O)c1c(O)c(Cl)cc(Cl)c1OC [raclopride]
- Gene 1 expression amount in the nucleus accumbens induced by methamphetamine (Gene 1 mRNA): significant difference was observed

Compound: CN1CCCC1c1cccnc1 (centres unmarked) [nicotine]
- Gene 1 mRNA amount in the nucleus accumbens (Gene 1 mRNA; nicotine 0.05-1.0 mg/kg s.c. 12 days): correlation between the administration of nicotine and the expression amount of Gene 1 was observed

Compound: CN[C@@H](C)Cc1ccccc1.Cl [methamphetamine, methamphetamine hydrochloride]
- locomotor activity (mice): enhanced
- locomotor activity (mice; listed as Methamphetamine): hyperactivity
- mRNA of Genes 1 to 3 (RT-PCR) (Genes 1 to 3 mRNA; methamphetamine administered group compared with control group, all primer combinations): increase of mRNA was observed
- expression amount of Genes 1 to 3 (real time RT-PCR) (Genes 1 to 3 mRNA; methamphetamine-administered cortex of frontal lobe, nucleus accumbens and striatum): increased
- mRNA expression amount increase over control group [1]: ≥ 20 times
- intracellular movement of the human dopamine transporter [2]: intracellular movement of the human dopamine transporter was observed

Compound: CN1CCc2cc(Cl)c(O)cc2[C@@H](c2ccccc2)C1 [R(+)-SCH23390]
- Gene 1 expression amount in the nucleus accumbens induced by methamphetamine (Gene 1 mRNA): significant difference was observed

Compound: CCO [ethanol]
- Gene 1 mRNA amount in the nucleus accumbens (Gene 1 mRNA; 6% ethanol fed for 12 days vs water): no significant correlation
